Source: PMC1790865, “Plant Carbohydrate Scavenging through TonB-Dependent Receptors: A Feature Shared by Phytopathogenic and Aquatic Bacteria” (PLoS ONE, 2007)
pKd: −log10 of the molar value.

How the values were obtained:
[1] = molecular target: T1, SuxA (XCC3358 TonB-dependent receptor) (Xanthomonas campestris, UniProt Q8P5I3); assay: […]sucrose concentration-dependent uptake in whole wild-type cells (Scatchard, high-affinity phase); uptake lost in suxA deletion mutant and restored by complementation; format: cell-based
T1 construct: gene fyuA
T1 sequence (Q8P5I3 entry or part of it): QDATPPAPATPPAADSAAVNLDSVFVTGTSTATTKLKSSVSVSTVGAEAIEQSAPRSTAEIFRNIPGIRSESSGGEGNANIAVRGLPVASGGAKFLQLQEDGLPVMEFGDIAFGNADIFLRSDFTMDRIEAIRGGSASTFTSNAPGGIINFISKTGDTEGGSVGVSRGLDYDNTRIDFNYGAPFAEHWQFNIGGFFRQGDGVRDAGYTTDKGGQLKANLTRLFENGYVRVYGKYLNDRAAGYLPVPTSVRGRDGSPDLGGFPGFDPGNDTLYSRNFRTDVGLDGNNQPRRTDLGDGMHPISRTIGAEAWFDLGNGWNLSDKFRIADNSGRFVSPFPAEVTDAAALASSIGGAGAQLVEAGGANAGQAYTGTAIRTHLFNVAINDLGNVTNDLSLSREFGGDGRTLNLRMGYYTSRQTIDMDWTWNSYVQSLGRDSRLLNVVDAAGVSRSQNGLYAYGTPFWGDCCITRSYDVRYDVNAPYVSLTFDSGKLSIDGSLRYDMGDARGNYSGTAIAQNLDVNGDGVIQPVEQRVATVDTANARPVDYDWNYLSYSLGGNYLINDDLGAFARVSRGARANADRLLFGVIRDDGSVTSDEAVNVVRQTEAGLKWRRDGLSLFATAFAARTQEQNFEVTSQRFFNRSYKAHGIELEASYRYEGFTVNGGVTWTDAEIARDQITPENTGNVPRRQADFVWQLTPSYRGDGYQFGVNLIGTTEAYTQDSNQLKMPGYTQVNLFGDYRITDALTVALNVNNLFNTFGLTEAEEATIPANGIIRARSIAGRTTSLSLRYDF

[2] = molecular target: T2, SuxC (XCC3357 inner membrane sugar transporter) (Xanthomonas campestris, UniProt Q8P5I4); assay: […]sucrose concentration-dependent uptake in whole wild-type cells (Scatchard, slow phase); uptake lost in suxC insertion mutant; format: cell-based
T2 construct: gene suc1
T2 sequence (Q8P5I4 entry or part of it): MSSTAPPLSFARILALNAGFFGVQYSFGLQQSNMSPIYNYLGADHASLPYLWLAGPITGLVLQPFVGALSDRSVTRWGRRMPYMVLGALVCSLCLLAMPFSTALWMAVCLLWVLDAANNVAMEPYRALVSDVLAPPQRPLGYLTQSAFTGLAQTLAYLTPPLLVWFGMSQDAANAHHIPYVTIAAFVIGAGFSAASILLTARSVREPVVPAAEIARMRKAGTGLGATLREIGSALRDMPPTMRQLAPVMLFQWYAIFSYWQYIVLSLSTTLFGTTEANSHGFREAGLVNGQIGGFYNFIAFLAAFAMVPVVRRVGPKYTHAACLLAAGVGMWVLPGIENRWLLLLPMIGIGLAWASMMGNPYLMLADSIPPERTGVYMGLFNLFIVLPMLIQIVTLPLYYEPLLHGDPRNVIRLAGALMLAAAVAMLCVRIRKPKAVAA

`OC[C@H]1O[C@@](CO)(O[C@H]2O[C@H](CO)[C@@H](O)[C@H](O)[C@H]2O)[C@@H](O)[C@@H]1O` [sucrose] gave a pKd [1] of 7.48 and a pKd [2] of 6.23.
